Assay results: patent US6866861B1, “Method and composition for enhancing milk component concentrations” (Land O'Lakes, Inc., priority 1999, dated 2005)

Assays:
cows [1] = assay: Abomasal infusion of glycerol in cows, different cows (Example 5); type: in vivo, cow; details: for Fat / Lactose / Total Solids / True Protein: 150 g/cow/day abomasal, average of 3 cows
Method: To determine the weight percent total solids, wet basis, in a sample, the actual weight of total solids is determined by analyzing the sample in accordance with Method #925.23 (33.2.09) of Official Methods of Analysis, Association of Official Analytical Chemists (AOAC) (16th Ed., 1995). The weight percent total solids, wet basis, is then calculated by dividing the actual weight of total solids by the actual weight of the sample. The weight percent of true protein, wet basis, for a particular sample is calculated after first determining the wet basis weight percent of total Kjeldahl nitrogen and the wet basis weight percent of non-protein nitrogen in the sample. The wet basis weight percent of total Kjeldahl nitrogen in the sample is determined using the method referenced above. The wet basis weight percent of non-protein nitrogen (NPN) in the sample is determined in accordance with Method #991.21 (33.2.12) of Official Methods of Analysis, Association of Official Analytical Chemists (AOAC) (16th Ed., 1995). The weight percent of true protein, wet basis, in the sample is then determined by subtracting the wet basis weight percent of non-protein nitrogen in the sample from the wet basis weight percent of total Kjeldahl nitrogen in the sample. To determine the weight percent lactose, wet basis, in a liquid sample, the weight of the liquid sample is first determined. The actual weight of lactose in the liquid sample may then be determined using analysis kit number 176-303, that is available from Boehringer-Mannheim of Indianapolis, Ind. in accordance with the procedural instructions included with analysis kit number 176-303. The weight percent lactose, wet basis, in the liquid sample is then calculated by dividing the actual weight of lactose in the liquid sample by the actual weight of the liquid sample. To determine the weight percent fat, wet basis, in a sample, the actual weight of fat in the sample is determined in accordance with Method #974.09 (33.7.18) of Official Methods of Analysis, Association of Official Analytical Chemists (AOAC) (16th Ed., 1995). The weight percent fat, wet basis, is then calculated by dividing the actual weight of fat in the sample by the actual weight of the sample. In this example, glycerol was abomasally infused into three different cows at a rate of 150 grams per cow per day during a 14 day test period. The cows used in this Example were different from the cows used in Example 4. The rations provided to the cows during the period extending from day 0, prior to abomasal infusion of glycerol, through day 14 of the test period were the same. The only difference in feeding of the cows between day 0 and days 1-14 of the test period were that during days 1-14 the cows were abomasally infused with the dosage of 150 grams of glycerol per cow per day. The glycerol was not combined with any other materials prior to being abomasally infused into the cattle. Milk from the three cows was collected and analyzed prior to infusion (on day 0) and also was collected and analyzed on the third, seventh and fourteenth day of the test period. The results presented in Table 5 below for each milk component for each particular day are averages for the milk collected from the three different cows. The net change for the different milk components presented in Table 5 was calculated by averaging the results of days 3, 7 and 14 for a particular milk component and subtracting the results presented for day 0 for the particular milk component.

cows [2] = assay: Oral feeding of sorbitol (not ruminally protected) to cows versus control group (Example 7); type: in vivo, cow
Method: To determine the weight percent total solids, wet basis, in a sample, the actual weight of total solids is determined by analyzing the sample in accordance with Method #925.23 (33.2.09) of Official Methods of Analysis, Association of Official Analytical Chemists (AOAC) (16th Ed., 1995). The weight percent total solids, wet basis, is then calculated by dividing the actual weight of total solids by the actual weight of the sample. The weight percent of true protein, wet basis, for a particular sample is calculated after first determining the wet basis weight percent of total Kjeldahl nitrogen and the wet basis weight percent of non-protein nitrogen in the sample. The wet basis weight percent of total Kjeldahl nitrogen in the sample is determined using the method referenced above. The wet basis weight percent of non-protein nitrogen (NPN) in the sample is determined in accordance with Method #991.21 (33.2.12) of Official Methods of Analysis, Association of Official Analytical Chemists (AOAC) (16th Ed., 1995). The weight percent of true protein, wet basis, in the sample is then determined by subtracting the wet basis weight percent of non-protein nitrogen in the sample from the wet basis weight percent of total Kjeldahl nitrogen in the sample. To determine the weight percent lactose, wet basis, in a liquid sample, the weight of the liquid sample is first determined. The actual weight of lactose in the liquid sample may then be determined using analysis kit number 176-303, that is available from Boehringer-Mannheim of Indianapolis, Ind. in accordance with the procedural instructions included with analysis kit number 176-303. The weight percent lactose, wet basis, in the liquid sample is then calculated by dividing the actual weight of lactose in the liquid sample by the actual weight of the liquid sample. To determine the weight percent fat, wet basis, in a sample, the actual weight of fat in the sample is determined in accordance with Method #974.09 (33.7.18) of Official Methods of Analysis, Association of Official Analytical Chemists (AOAC) (16th Ed., 1995). The weight percent fat, wet basis, is then calculated by dividing the actual weight of fat in the sample by the actual weight of the sample. In this example, ten cows were orally fed 100 grams per cow per day of sorbitol along with their other daily rations during a test period of four weeks, while ten different cows of a control group were orally fed the same daily rations as the ten cows, with the exception that the ten cows of this control group were not given any sorbitol. The milk of the cows in the control group and the milk of the cows given sorbitol was sampled twice per week during the four week test period. Therefore, the values presented in Table 6 below for the various milk components for the control group and for the cows fed sorbitol represent averages of eight milk samples during the test period. The probability value, P, that is presented in Table 6 for each of the different milk components is a measure of statistical probability that the differing values between the control cattle and the cattle fed sorbitol, for each respective milk component, can be explained by the difference between the control group not being fed sorbitol and the test group that was fed sorbitol. A P value of 0.10 means that 10 times out of 100 the results can be explained by factors other than the feeding or withholding of sorbitol. […]

[3] = milk, average of days 3, 7, 14 minus day 0
[4] = milk, oral 100 gr/day, four weeks, 10 cows, average of eight samples

## OCC(O)CO [glycerol]
Cows [1]; abomasal infusion, 14 day test period
  weight percent of fat, true protein, lactose, and total solids in the milk (conclusion in words): net increase
Cows [1]; milk, Day 3
  Fat: 3.39 Wt %
  Lactose: 4.86 Wt. %
  Total Solids: 12.04 Wt. %
  True Protein: 3.04 Wt. %
Cows [1]; milk, Day 7
  Fat: 3.25 Wt %
  Lactose: 5.19 Wt. %
  Total Solids: 12.17 Wt. %
  True Protein: 2.98 Wt. %
Cows [1]; milk, Day 14
  Fat: 3.32 Wt %
  Lactose: 4.87 Wt. %
  Total Solids: 11.99 Wt. %
  True Protein: 3.05 Wt. %
Cows [1]; [3]
  Fat, Net Change: +0.25 Wt %
  Lactose, Net Change: +0.08 Wt. %
  Total Solids, Net Change: +0.44 Wt. %
  True Protein, Net Change: +0.10 Wt. %

## OC[C@@H](O)[C@@H](O)[C@H](O)[C@@H](O)CO [sorbitol]
Cows [2]; [4]
  Fat: 4.02 Wt %
  Lactose: 4.81 Wt. %
  Total Solids: 12.11 Wt. %
  True Protein: 2.76 Wt. %
Cows [2]; oral feeding, not ruminally protected
  weight percent of milk components versus control group (conclusion in words): no statistically significant increase
